# Measurements published in US11739098B2 (BRISTOL-MYERS SQUIBB COMPANY, priority 2017, dated 2023).
# How the values were obtained:
# Assay type in all cases: cell-based
# human TLR9 = molecular target: T1, human TLR9 (Homo sapiens, UniProt Q9NR96); experiment: TLR9 inhibition reporter assay (HEK-Blue cells, SEAP reporter, ODN2006 stimulation); settings: HEK-Blue cells overexpressing human TLR9, SEAP reporter, ODN2006 5 nM
# T1 construct: host or cells: HEK-Blue cells (HEK293-derived reporter line)
# T1 sequence (Q9NR96 26-1032): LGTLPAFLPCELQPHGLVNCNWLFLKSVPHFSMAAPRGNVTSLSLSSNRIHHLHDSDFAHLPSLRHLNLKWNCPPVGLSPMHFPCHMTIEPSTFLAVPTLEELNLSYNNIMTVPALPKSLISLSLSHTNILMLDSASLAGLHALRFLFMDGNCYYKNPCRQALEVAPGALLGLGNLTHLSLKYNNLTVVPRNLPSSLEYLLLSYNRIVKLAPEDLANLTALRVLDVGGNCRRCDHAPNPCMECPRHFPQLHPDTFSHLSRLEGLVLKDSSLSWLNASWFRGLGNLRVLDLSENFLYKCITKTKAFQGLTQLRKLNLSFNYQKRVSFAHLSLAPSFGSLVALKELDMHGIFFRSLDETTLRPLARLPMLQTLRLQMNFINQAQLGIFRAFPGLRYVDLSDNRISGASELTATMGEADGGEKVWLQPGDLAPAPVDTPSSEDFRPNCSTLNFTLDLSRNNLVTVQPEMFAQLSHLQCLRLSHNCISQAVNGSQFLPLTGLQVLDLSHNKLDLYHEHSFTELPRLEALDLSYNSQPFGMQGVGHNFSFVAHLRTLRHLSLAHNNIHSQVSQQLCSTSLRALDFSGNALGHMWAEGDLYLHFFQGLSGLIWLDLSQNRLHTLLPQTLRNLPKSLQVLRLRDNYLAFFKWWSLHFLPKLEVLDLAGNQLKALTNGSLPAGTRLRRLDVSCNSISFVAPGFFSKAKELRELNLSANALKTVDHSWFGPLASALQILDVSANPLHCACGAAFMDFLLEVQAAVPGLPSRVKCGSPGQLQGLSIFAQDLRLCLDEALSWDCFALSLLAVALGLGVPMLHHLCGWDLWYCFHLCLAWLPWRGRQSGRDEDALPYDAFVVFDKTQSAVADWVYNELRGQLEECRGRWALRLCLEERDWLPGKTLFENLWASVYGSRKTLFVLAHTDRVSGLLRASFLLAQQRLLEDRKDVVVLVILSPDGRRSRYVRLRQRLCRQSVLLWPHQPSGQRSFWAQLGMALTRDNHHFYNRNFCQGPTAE
# Outline: (§1)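 Agonists (final): TLR7 gardiquimod 7.5 μM; TLR8 R848 15.9 μM; TLR9 ODN2006 5 nM. HEK-Blue reporter cells, 30 min RT compound pre-incubation, 0.05 nM–50 μM dose range, 22 h at 37 °C, colorimetric SEAP detection medium. % inhibition relative to agonist+DMSO and known-inhibitor wells.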
# human TLR8 = molecular target: T2, human TLR8 (Homo sapiens, UniProt Q9NR97); experiment: TLR8 inhibition reporter assay (HEK-Blue cells, SEAP reporter, R848 stimulation); settings: HEK-Blue cells overexpressing human TLR8, SEAP reporter, R848 15.9 μM
# T2 construct: host or cells: HEK-Blue cells (HEK293-derived reporter line)
# T2 sequence (Q9NR97 27-1041): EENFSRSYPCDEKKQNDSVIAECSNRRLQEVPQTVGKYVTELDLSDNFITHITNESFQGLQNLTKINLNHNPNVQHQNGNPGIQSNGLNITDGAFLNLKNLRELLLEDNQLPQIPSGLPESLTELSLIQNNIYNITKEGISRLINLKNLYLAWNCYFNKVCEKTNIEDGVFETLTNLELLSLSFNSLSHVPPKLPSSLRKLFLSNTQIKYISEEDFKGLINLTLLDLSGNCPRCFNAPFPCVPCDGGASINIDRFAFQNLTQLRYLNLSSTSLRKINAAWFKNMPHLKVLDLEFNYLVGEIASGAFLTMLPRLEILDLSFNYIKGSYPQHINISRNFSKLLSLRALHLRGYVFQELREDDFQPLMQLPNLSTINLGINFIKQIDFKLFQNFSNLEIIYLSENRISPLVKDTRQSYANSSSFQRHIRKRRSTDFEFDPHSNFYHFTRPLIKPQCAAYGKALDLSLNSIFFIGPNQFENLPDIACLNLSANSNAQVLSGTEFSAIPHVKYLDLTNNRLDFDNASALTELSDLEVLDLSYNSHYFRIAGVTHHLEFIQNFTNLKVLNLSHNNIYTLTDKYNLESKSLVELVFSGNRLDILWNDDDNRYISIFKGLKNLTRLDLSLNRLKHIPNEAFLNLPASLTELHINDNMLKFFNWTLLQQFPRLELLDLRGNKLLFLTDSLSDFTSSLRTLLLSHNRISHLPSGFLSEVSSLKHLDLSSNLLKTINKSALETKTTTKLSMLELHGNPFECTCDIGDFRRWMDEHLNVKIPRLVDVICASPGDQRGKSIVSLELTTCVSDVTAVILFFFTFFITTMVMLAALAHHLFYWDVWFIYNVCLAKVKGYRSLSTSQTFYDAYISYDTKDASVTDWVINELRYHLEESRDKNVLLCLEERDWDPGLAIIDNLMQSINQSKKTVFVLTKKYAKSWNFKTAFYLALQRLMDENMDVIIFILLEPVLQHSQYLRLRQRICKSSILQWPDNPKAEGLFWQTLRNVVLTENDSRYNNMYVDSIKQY
# Outline: as §1
# human TLR7 = molecular target: T3, human TLR7 (Homo sapiens, UniProt Q9NYK1); experiment: TLR7 inhibition reporter assay (HEK-Blue cells, SEAP reporter, gardiquimod stimulation); settings: HEK-Blue cells overexpressing human TLR7, SEAP reporter, gardiquimod 7.5 μM
# T3 construct: host or cells: HEK-Blue cells (HEK293-derived reporter line)
# T3 sequence (Q9NYK1 27-1049): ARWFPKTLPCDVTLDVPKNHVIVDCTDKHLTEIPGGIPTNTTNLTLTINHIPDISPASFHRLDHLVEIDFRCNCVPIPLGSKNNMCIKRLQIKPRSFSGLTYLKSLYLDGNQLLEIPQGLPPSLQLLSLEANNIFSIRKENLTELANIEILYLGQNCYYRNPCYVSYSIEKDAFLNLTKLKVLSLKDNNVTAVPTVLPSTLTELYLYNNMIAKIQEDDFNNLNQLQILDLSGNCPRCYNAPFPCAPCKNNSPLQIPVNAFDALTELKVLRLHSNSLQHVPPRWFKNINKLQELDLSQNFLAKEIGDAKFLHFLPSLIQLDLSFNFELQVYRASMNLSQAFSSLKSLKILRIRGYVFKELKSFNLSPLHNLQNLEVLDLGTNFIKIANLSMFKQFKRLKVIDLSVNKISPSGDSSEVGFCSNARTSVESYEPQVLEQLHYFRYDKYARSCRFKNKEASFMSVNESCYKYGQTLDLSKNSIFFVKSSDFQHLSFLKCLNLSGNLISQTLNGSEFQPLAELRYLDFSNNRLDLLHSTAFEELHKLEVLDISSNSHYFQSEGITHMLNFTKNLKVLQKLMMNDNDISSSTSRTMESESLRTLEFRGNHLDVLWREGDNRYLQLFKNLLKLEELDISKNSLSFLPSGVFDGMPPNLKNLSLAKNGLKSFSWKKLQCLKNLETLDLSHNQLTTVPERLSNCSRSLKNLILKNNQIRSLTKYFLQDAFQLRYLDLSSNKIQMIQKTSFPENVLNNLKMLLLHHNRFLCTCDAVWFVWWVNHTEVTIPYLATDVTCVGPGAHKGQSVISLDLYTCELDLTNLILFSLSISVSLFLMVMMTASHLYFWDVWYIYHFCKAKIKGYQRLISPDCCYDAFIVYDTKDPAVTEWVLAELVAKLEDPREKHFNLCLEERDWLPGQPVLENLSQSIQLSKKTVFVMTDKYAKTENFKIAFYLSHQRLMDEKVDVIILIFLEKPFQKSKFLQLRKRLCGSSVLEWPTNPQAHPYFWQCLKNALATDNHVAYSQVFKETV
# Outline: as §1
IC50 (human TLR9) [nM],IC50 (human TLR8) [nM],IC50 (human TLR7) [nM],Compound
1000 to 50000,1000 to 50000,1000 to 50000,"CC(C)c1c(-c2ccc3cc[nH]c3c2)[nH]c2ccc(C3CCNCC3)cc12 [Example 65, 3-isopropyl-5-(piperidin-4-yl)-1H,1′H-2,6′-biindole]"
100 to 1000,< 100,< 100,"COc1c(C)c(-c2[nH]c3ccc(C4CCNCC4)cc3c2C(C)C)nn2ncnc12 [Example 33, 6-(3-isopropyl-5-(piperidin-4-yl)-1H-indol-2-yl)-8-methoxy-7-methyl-[1,2,4]triazolo[1,5-b]pyridazine]"
1000 to 50000,< 100,< 100,"Cc1cc(-c2[nH]c3ccc(C4CCN(C5CCS(=O)(=O)CC5)CC4)cc3c2C(C)C)cn2nnnc12 [Example 788, 4-(4-(3-isopropyl-2-(8-methyltetrazolo[1,5-a]pyridin-6-yl)-1H-indol-5-yl)piperidin-1-yl)tetrahydro-2H-thiopyran 1,1-dioxide]"
100 to 1000,< 100,100 to 1000,"CC(C)c1c(-c2ccnc3c2CC(=O)N3)[nH]c2ccc(C3CCNCC3)cc12 [Example 69, 4-(3-isopropyl-5-(piperidin-4-yl)-1H-indol-2-yl)-1,3-dihydro-2H-pyrrolo[2,3-b]pyridin-2-one]"
100 to 1000,< 100,< 100,"Cc1ccnc2[nH]cc(-c3[nH]c4ccc(C5CCNCC5)cc4c3C(C)C)c12 [Example 36, 3-(3-isopropyl-5-(piperidin-4-yl)-1H-indol-2-yl)-4-methyl-1H-pyrrolo[2,3-b]pyridine]"
1000 to 50000,100 to 1000,< 100,"CN(C)C(=O)CN1CCC(c2ccc3[nH]c(-c4ccn5ccnc5c4)c(CC(F)F)c3c2)CC1 [Example 445, 2-(4-(3-(2,2-difluoroethyl)-2-(imidazo[1,2-a]pyridin-7-yl)-1H-indol-5-yl)piperidin-1-yl)-N,N-dimethylacetamide]"
> 50000,100 to 1000,< 100,"Cc1cc(-c2[nH]c3ccc(C4CCN(C(=O)CCN5CCS(=O)(=O)CC5)CC4)cc3c2C(C)C)cn2nnnc12 [Example 634, 3-(1,1-dioxidothiomorpholino)-1-(4-(3-isopropyl-2-(8-methyltetrazolo[1,5-a]pyridin-6-yl)-1H-indol-5-yl)piperidin-1-yl)propan-1-one]"
100 to 1000,< 100,< 100,"CC(C)c1c(-c2cc(C(F)(F)F)c3nccn3c2)[nH]c2ccc(C3CCN(C(=O)CN(C)C)CC3)cc12 [Example 507, 2-(dimethylamino)-1-(4-(3-isopropyl-2-(8-(trifluoromethyl)imidazo[1,2-a]pyridin-6-yl)-1H-indol-5-yl)piperidin-1-yl)ethan-1-one]"
1000 to 50000,< 100,< 100,"Cc1cc(-c2[nH]c3ccc(C4CCN(C(=O)CCN5CCC(F)(F)CC5)CC4)cc3c2C(C)C)cn2nnnc12 [Example 628, 3-(4,4-difluoropiperidin-1-yl)-1-(4-(3-isopropyl-2-(8-methyltetrazolo[1,5-a]pyridin-6-yl)-1H-indol-5-yl)piperidin-1-yl)propan-1-one]"
100 to 1000,100 to 1000,100 to 1000,"CC(C)c1c(-c2ccc3cnnn3c2)[nH]c2ccc(C3CCN(CC(=O)N(C)C)CC3)cc12 [Example 299, 2-(4-(2-([1,2,3]triazolo[1,5-a]pyridin-6-yl)-3-isopropyl-1H-indol-5-yl)piperidin-1-yl)-N,N-dimethylacetamide]"
1000 to 50000,< 100,< 100,"Cc1c(-c2[nH]c3ccc(C4CCN(C(=O)CN(C)C)CC4)cc3c2C(C)C)nn2ncnc2c1C [Example 453, 1-(4-(2-(7,8-dimethyl-[1,2,4]triazolo [1,5-b]pyridazin-6-yl)-3-isopropyl-1H-indol-5-yl)piperidin-1-yl)-2-(dimethylamino)ethan-1-one]"
100 to 1000,100 to 1000,< 100,"CC(C)c1c(-c2ccc3cnnn3c2)[nH]c2ccc(C3CCNCC3)cc12 [Example 79, 6-(3-isopropyl-5-(piperidin-4-yl)-1H-indol-2-yl)-[1,2,3]triazolo[1,5-a]pyridine]"
1000 to 50000,100 to 1000,< 100,"Cc1cc(-c2[nH]c3ccc(C4CCNCC4)cc3c2C(C)C)cc2c1oc(=O)n2C [Example 90, 5-(3-isopropyl-5-(piperidin-4-yl)-1H-indol-2-yl)-3,7-dimethylbenzo[d]oxazol-2(3H)-one]"
1000 to 50000,< 100,< 100,"CNC(=O)CN1CCC(c2ccc3[nH]c(-c4cc(C)nc5ccccc45)c(C(C)C)c3c2)CC1 [Example 328, 2-(4-(3-isopropyl-2-(2-methylquinolin-4-yl)-1H-indol-5-yl)piperidin-1-yl)-N-methylacetamide]"
